Structures can show the parent of a compound that is named as a salt.
Legend:
Experiment in all cases: MIC, agar dilution
Type in all cases: cell-based
[1] = tested on: Acinetobacter calcoaceticus, 8333; conditions: Acinetobacter calcoaceticus, 8333, 18 h, K-10 agar, 10^4 CFU, 37°C, read-out: M.I.C.
Protocol: (§1) The following methodology is used to determine the minimum inhibitory concentration (hereinafter referred to as MIC) of the […] of this invention.
(§2) The test organisms are grown in approximately 15-20 ml of Antibiotic Assay broth (Difco) by inoculating (in tubes) the broth with a loopful of the organism from a BHI (Difco) agar slant. The inoculated tubes are incubated at 37°C for 18 to 20 hours. These cultures are assumed to contain 10^9 colony forming units (hereinafter CFU) per milliliter. The cultures are diluted 1:100 to give a final inoculum level of 10^4 CFU; dilutions are made with K-10 broth^*.
(§3) The compounds are dissolved in the appropriate diluent at a concentration of 1000 µg/ml. Twofold dilutions are made in K-10 broth resulting in a range from 1000 µg/ml to 0.5 µg/ml. 1.5 ml of each dilution is placed into individual square petri dishes to which 13.5 ml of K-10 agar^** is added. The final drug concentration in the agar ranges from 100 µg/ml to 0.05 µg/ml. Organism growth control plates containing agar only are prepared and inoculated before and after the test plates. The organisms are applied to the agar surface of each plate with the Denley Multipoint Inoculator (which delivers approximately 0.001 ml of each organism) resulting in a final inoculum level of 10^4 CFU on the agar surface.
(§4) The plates are incubated at 37 °C for 18 hours and the MIC's are determined. The MIC is the lowest concentration of compound inhibiting growth of the organism.
(§5) The tables that follow are tabulated results obtained when the B-lactams of this invention are tested against various organisms. The number following each organism refers to the number of the organism in the collection of E. R. Squibb & Sons,.Inc., Princeton, New Jersey. […] The symbol "N.T." means not tested.

[2] = tested on: Citrobacter freundii, 9518; conditions: K-10 agar, 10^4 CFU, 37°C, 18 hours, read-out: M.I.C.
Protocol: as §1, §2, §3, §4, §5

[3] = tested on: Enterobacter aerogenes, 10078; conditions: Klebsiella aerogenes, 10078, 18 h, Enterobacter aerogenes, 10078; K-10 agar, 10^4 CFU, 37°C, 18 hours; read-out: M.I.C.
Protocol: as §1, §2, §3, §4, §5

Escherichia coli, 10857 = conditions: Escherichia coli, 10857, 18 h, K-10 agar, 10^4 CFU, 37°C
Protocol: as §1, §2, §3, §4, §5

Escherichia coli, 10896 = conditions: K-10 agar, 10^4 CFU, 37°C, 18 hours
Protocol: as §1, §2, §3, §4, §5

Escherichia coli, 10909 = conditions: K-10 agar, 10^4 CFU, 37°C, 18 hours
Protocol: as §1, §2, §3, §4, §5

Escherichia coli, 8294 = conditions: Escherichia coli, 8294, 18 h, K-10 agar, 10^4 CFU, 37°C
Protocol: as §1, §2, §3, §4, §5

[4] = tested on: Klebsiella aerogenes, 10440; conditions: K-10 agar, 10^4 CFU, 37°C, 18 hours, read-out: M.I.C.
Protocol: as §1, §2, §3, §4, §5

[5] = tested on: Klebsiella pneumoniae, 9527; conditions: Klebsiella pneumoniae, 9527, 18 h, K-10 agar, 10^4 CFU, 37°C, read-out: M.I.C.
Protocol: as §1, §2, §3, §4, §5

Proteus mirabilis, 3855 = conditions: Proteus mirabilis, 3855, 18 h, K-10 agar, 10^4 CFU, 37°C, read-out: M.I.C.
Protocol: as §1, §2, §3, §4, §5

Proteus rettgeri, 8479 = conditions: Providencia rettgeri, K-10 agar, 10^4 CFU, 37°C, 18 hours, read-out: M.I.C.
Protocol: as §1, §2, §3, §4, §5

Proteus vulgaris, 9416 = conditions: K-10 agar, 10^4 CFU, 37°C, 18 hours, read-out: M.I.C.
Protocol: as §1, §2, §3, §4, §5

[6] = tested on: Pseudomonas aeruginosa, 8329; conditions: K-10 agar, 10^4 CFU, 37°C, 18 hours, read-out: M.I.C.
Protocol: as §1, §2, §3, §4, §5

[7] = tested on: Pseudomonas aeruginosa, 9545; conditions: Pseudomonas aeruginosa, 9545, 18 h, K-10 agar, 10^4 CFU, 37°C, read-out: M.I.C.
Protocol: as §1, §2, §3, §4, §5

Salmonella typhosa, 1195 = conditions: Salmonella enterica, TYPHOSA, 18 h, K-10 agar, 10^4 CFU, 37°C
Protocol: as §1, §2, §3, §4, §5

[8] = tested on: Serratia marcescens, 9783; conditions: Serratia marcescens, 9783, 18 h, K-10 agar, 10^4 CFU, 37°C, read-out: M.I.C.
Protocol: as §1, §2, §3, §4, §5

Shigella sonnei, 8449 = conditions: Shigella sonnei, 8449, 18 h, K-10 agar, 10^4 CFU, 37°C
Protocol: as §1, §2, §3, §4, §5

[9] = tested on: Staphylococcus aureus, 10165; conditions: Staphylococcus aureus, 10165; K-10 agar, 10^4 CFU, 37°C, 18 hours; read-out: M.I.C.
Protocol: as §1, §2, §3, §4, §5

[10] = tested on: Staphylococcus aureus, 1276; conditions: Staphylococcus aureus, 1276; K-10 agar, 10^4 CFU, 37°C, 18 hours; read-out: M.I.C.
Protocol: as §1, §2, §3, §4, §5

[11] = tested on: Staphylococcus aureus, 2399; conditions: Staphylococcus aureus, 2399, 18 h, Staphylococcus aureus, 2399; K-10 agar, 10^4 CFU, 37°C, 18 hours; read-out: M.I.C.
Protocol: as §1, §2, §3, §4, §5

[12] = tested on: Staphylococcus aureus, 2400; conditions: Staphylococcus aureus, 2400; K-10 agar, 10^4 CFU, 37°C, 18 hours; read-out: M.I.C.
Protocol: as §1, §2, §3, §4, §5

[13] = tested on: Streptococcus faecalis, 9011; conditions: Enterococcus faecalis; Streptococcus faecalis, 9011; K-10 agar, 10^4 CFU, 37°C, 18 hours; read-out: M.I.C.
Protocol: as §1, §2, §3, §4, §5

[14] = tested on: Enterobacter cloacae, 8236; conditions: Enterobacter cloacae, 8236, 18 h, K-10 agar, 10^4 CFU, 37°C
Protocol: as §1, §2, §3
(§6) The MIC is the lowest concentration of compound inhibiting growth of the organism.
(§7) The number following each organism refers to the number of the organism in the collection of E. R. Squibb & Sons,.Inc., Princeton, New Jersey. […] The symbol "N.T." means not tested.

Micrococcus luteus, 2495 = conditions: Micrococcus luteus, 2495, 18 h, K-10 agar, 10^4 CFU, 37°C, read-out: M.I.C.
Protocol: as §1, §2, §3, §6, §7

[15] = tested on: Streptococcus agalactiae, 9287; conditions: Streptococcus agalactiae, 9287, 18 h, K-10 agar, 10^4 CFU, 37°C, read-out: M.I.C.
Protocol: as §1, §2, §3, §6, §7

SMILES | MIC [1] | MIC [2] | MIC [3] | MIC (Escherichia coli, 10857) | MIC (Escherichia coli, 10896) | MIC (Escherichia coli, 10909) | MIC (Escherichia coli, 8294) | MIC [4] | MIC [5] | MIC (Proteus mirabilis, 3855) | MIC (Proteus rettgeri, 8479) | MIC (Proteus vulgaris, 9416) | MIC [6] | MIC [7] | MIC (Salmonella typhosa, 1195) | MIC [8] | MIC (Shigella sonnei, 8449) | MIC [9] | MIC [10] | MIC [11] | other results
COC1(NC(=O)Cc2ccccc2)C(=O)N(S(=O)(=O)O)C1C (stereo not drawn) [Example 29, (3S-trans)-3-Methoxy-4-methyl-2-oxo-3-[(phenylacetyl)-amino]-1-azetidinesulfonic acid, potassium salt] | > 100 µg/mL | > 100 µg/mL | > 100 µg/mL | > 100 µg/mL | 100 µg/mL | 100 µg/mL | > 100 µg/mL | > 100 µg/mL | 100 µg/mL | > 100 µg/mL | > 100 µg/mL | > 100 µg/mL | > 100 µg/mL | > 100 µg/mL | > 100 µg/mL | > 100 µg/mL | > 100 µg/mL | > 100 µg/mL | > 100 µg/mL | > 100 µg/mL | MIC [12]: > 100 µg/mL; MIC [13]: > 100 µg/mL; MIC [14]: > 100 µg/mL; MIC (Micrococcus luteus, 2495): > 100 µg/mL; MIC [15]: > 100 µg/mL
C[C@H]1[C@H](NC(=O)/C(=N\OCC(=O)O)c2csc(N)n2)C(=O)N1S(=O)(=O)O [Example 31, [3S-[3α(Z),4β]]-3-[[[(Carboxymethoxy)imino](2-amino-4-thiazolyl)acetyl]amino]-4-methyl-2-oxo-l-azetidinesulfonic acid, dipotassium salt] | 100 µg/mL | 0.2 µg/mL | 0.4 µg/mL | 0.2 µg/mL | 0.1 µg/mL | 0.1 µg/mL | 0.4 µg/mL | 0.8 µg/mL | 0.2 µg/mL | 0.2 µg/mL | 0.05 µg/mL | 0.2 µg/mL | 12.5 µg/mL | 0.8 µg/mL | 0.2 µg/mL | 0.4 µg/mL | 0.4 µg/mL | > 100 µg/mL | > 100 µg/mL | > 100 µg/mL | MIC [12]: > 100 µg/mL; MIC [13]: > 100 µg/mL; MIC [14]: 0.2 µg/mL; MIC (Micrococcus luteus, 2495): > 100 µg/mL; MIC [15]: 100 µg/mL
